The supplement of paper PMC10307832

Columns and labels:
Test in all cases: relative viability (nuclei count vs DMSO), 5 days (fraction); higher = more cells survive
[1] = compound: C[C@]12O[C@H](C[C@]1(O)CO)n1c3ccccc3c3c4c(c5c6ccccc6n2c5c31)CNC4=O [Lestaurtinib] + Cc1cc(Nc2cc(N3CCN(C)CC3)nc(Sc3ccc(NC(=O)C4CC4)cc3)n2)n[nH]1 [Tozasertib] (partner 0.1 µM)
Method in brief: (§1)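 Relative viability was taken as the ratio of nuclei in treated wells to nuclei in vehicle wells. Lung cancer cell lines in 1536-well plates received compounds by pin tool one day after seeding, either one drug alone or a fixed anchor-drug dose plus five library-drug doses (not always all listed) in √10 steps. Nuclei were counted on 4× images after 5 days of treatment, and values are medians of duplicate plates.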

[2] = compound: C1/C(=C\C2=CC=CS2)/C(=O)/C(=C/C3=CC=CS3)/C1 + Nc1nc2[nH]cc(CCc3ccc(C(=O)N[C@@H](CCC(=O)O)C(=O)O)cc3)c2c(=O)[nH]1 [Pemetrexed] (partner 0.2 µM)
Method in brief: as §1

[3] = compound: C[C@]12O[C@H](C[C@]1(O)CO)n1c3ccccc3c3c4c(c5c6ccccc6n2c5c31)CNC4=O [Lestaurtinib] + O=C(c1cc(Cc2n[nH]c(=O)c3ccccc23)ccc1F)N1CCN(C(=O)C2CC2)CC1 [Olaparib] (partner 8 µM)
Method in brief: as §1

[4] = compound: C1/C(=C\C2=CC=CS2)/C(=O)/C(=C/C3=CC=CS3)/C1 + O=C(CCCCCCC(=O)Nc1ccccc1)NO [Vorinostat] (partner 1 µM)
Method in brief: as §1

Cell Line | relative viability ([1]; first compound 0.005 µM) | relative viability ([1]; first compound 0.01581 µM) | relative viability ([1]; first compound 0.05 µM) | relative viability ([1]; first compound 0.1581 µM) | relative viability ([1]; first compound 0.5 µM) | relative viability ([2]; first compound 0.2 µM) | relative viability ([2]; first compound 0.6325 µM) | relative viability ([2]; first compound 2 µM) | relative viability ([2]; first compound 6.325 µM) | relative viability ([2]; first compound 20 µM) | relative viability ([3]; first compound 0.005 µM) | relative viability ([3]; first compound 0.01581 µM) | relative viability ([3]; first compound 0.05 µM) | relative viability ([3]; first compound 0.1581 µM) | relative viability ([3]; first compound 0.5 µM) | relative viability ([4]; first compound 0.2 µM) | relative viability ([4]; first compound 0.6325 µM) | relative viability ([4]; first compound 2 µM) | relative viability ([4]; first compound 6.325 µM) | relative viability ([4]; first compound 20 µM)
NCI-H838 | 0.275 | 0.238 | 0.275 | 0.2 | 0.171 | 0.249 | 0.256 | 0.261 | 0.212 | 0.242 | 0.911 | 0.796 | 0.549 | 0.348 | 0.162 | 0.731 | 0.709 | 0.767 | 0.596 | 0.657
LK-2 | 0.161 | 0.183 | 0.165 | 0.17 | 0.164 | 0.273 |  | 0.354 | 0.282 | 0.276 | 0.767 | 0.896 | 0.602 | 0.466 | 0.133 | 0.255 | 0.337 | 0.432 | 0.324 | 0.32
NCI-H1650 | 0.469 | 0.526 | 0.343 | 0.371 | 0.313 | 0.35 | 0.392 | 0.42 | 0.373 | 0.367 | 0.596 | 0.79 | 0.787 | 1.22 | 0.631 | 0.49 | 0.44 | 0.796 | 0.56 | 0.498
NCI-H322M | 0.483 | 0.276 | 0.355 | 0.397 | 0.415 | 0.628 | 0.642 | 0.681 | 0.503 | 0.626 | 0.823 | 0.622 |  | 0.765 | 0.521 | 0.902 | 0.892 | 1.03 | 0.865 | 0.917
NCI-H661 | 0.359 | 0.361 | 0.395 | 0.423 | 0.417 | 0.914 | 1.01 | 0.949 | 0.806 | 0.959 | 0.813 | 0.754 | 0.684 | 0.735 | 0.419 | 0.845 | 0.825 | 0.756 | 0.638 | 0.778
NCI-H2228 | 0.178 | 0.23 | 0.257 | 0.219 | 0.163 | 0.369 | 0.333 | 0.4 | 0.33 | 0.326 | 0.644 | 0.455 | 0.318 | 0.432 | 0.137 | 0.668 | 0.563 | 0.764 | 0.396 | 0.504
NCI-H1395 | 0.773 | 0.791 | 0.64 | 0.721 | 0.46 | 0.889 | 0.912 | 1.08 | 0.819 | 0.971 | 0.498 | 0.494 | 0.426 | 0.406 | 0.369 | 0.668 | 0.767 | 1.03 | 0.744 | 0.8
NCI-H520 | 0.458 | 0.468 | 0.428 | 0.388 | 0.254 | 0.644 | 0.623 | 0.727 |  | 0.65 | 0.383 | 0.421 | 0.315 | 0.319 | 0.254 | 0.767 | 0.787 | 0.733 |  | 0.72
NCI-H441 | 0.711 | 0.719 | 0.537 | 0.651 | 0.442 | 0.273 | 0.261 | 0.264 | 0.27 | 0.264 | 0.557 | 0.513 | 0.495 | 0.48 | 0.379 | 0.863 | 0.676 | 0.683 | 0.743 | 0.78
